SMILES strings stand for the structures.

The test system of test [1] is HepG2. The test is described as follows: Antiproliferative activity against human HepG2 cells assessed as reduction in cell proliferation measured after 72 hrs by MTT assay. Type of test: functional, cell-based. As to conditions: HepG2, 72 h.
The next test has as its system L02. The test can be described thus: Cytotoxicity against human L02 cells assessed as reduction in cell proliferation measured after 72 hrs by MTT assay. Type of test: cell-based. The note with it: L02, 72 h.
Test [2] can be described thus: Antiproliferative activity against human HCCLM3 cells assessed as reduction in cell proliferation measured after 72 hrs by MTT assay. Type of test: functional, cell-based. The note with it: HCCLM3, 72 h.
The subject of test [3] is HepG2. The test can be described thus: Reduction in SIRT2 expression in human HepG2 cells measured after 72 hrs by Western blot analysis. As to conditions: dose microM 5-30, time 72.0 hrs. It is filed as functional, cell-based.
Test [4] relates to HepG2. The test is described as follows: Reduction in SIRT2 expression in human HepG2 cells at 15 uM by Western blot analysis. It is filed as functional, cell-based. The note with it: time hrs 24-72, TDE = time-dependent effect.
Test [5] relates to HepG2. The test is described as follows: Cell cycle arrest in human HepG2 cells assessed as accumulation at subG1 phase at 15 uM measured after 24 hrs by FACS based flow cytometry analysis (reference value: 3 %). It is filed as functional.
Test [6] relates to HepG2. The test can be described thus: Cell cycle arrest in human HepG2 cells assessed as accumulation at subG1 phase at 15 uM measured after 48 hrs by FACS based flow cytometry analysis (reference value: 3 %). Type of test: functional.
Test [7] relates to HepG2. The test is described as follows: Cell cycle arrest in human HepG2 cells assessed as accumulation at subG1 phase at 15 uM measured after 72 hrs by FACS based flow cytometry analysis (reference value: 4 %). Type of test: functional.
In test [8] the test system is HepG2. The test can be described thus: Cell cycle arrest in human HepG2 cells assessed as accumulation at subG1 phase at 15 uM measured after 72 hrs by FACS based flow cytometry analysis (reference value: 3 %). It is filed as functional.
Test [9] has as its system HepG2. The test is described as follows: Cell cycle arrest in human HepG2 cells assessed as accumulation at subG1 phase at 5 uM measured after 72 hrs by FACS based flow cytometry analysis (reference value: 4 %). It is filed as functional.
For test [10], the system named is HepG2. The test can be described thus: Cell cycle arrest in human HepG2 cells assessed as accumulation at subG1 phase at 30 uM measured after 72 hrs by FACS based flow cytometry analysis (reference value: 4 %). It is filed as functional.

Regarding `Cn1nc(-c2nnc(-c3ccccc3)o2)c2ccccc21`, the values for the IC50 (in the test on HepG2 [1]; in the test on L02; in test [2]) were 37.5 µM, 84.6 µM and 100 µM, respectively.
Regarding `Cn1nc(-c2nnc(-c3ccccc3Cl)o2)c2ccccc21`, the figures for the IC50 (in the test with HepG2 [1]; with L02; in test [2]) were 45 µM, more than 100 µM and more than 100 µM, respectively.
Consider `Cn1nc(-c2nnc(-c3cccc(Cl)c3)o2)c2ccccc21`, for which the IC50 was 21.4 µM in the test with HepG2 [1], more than 100 µM in the test on L02 and more than 100 µM in test [2].
For `Cc1cccc(-c2nnc(-c3nn(C)c4ccccc34)o2)c1`, the figures for the IC50 (in the test on HepG2 [1]; in the test with L02; in test [2]) were 60 µM, more than 100 µM and more than 100 µM, respectively.
As to `Cn1nc(-c2nnc(-c3cccc(Br)c3)o2)c2ccccc21`, the IC50 was 24.5 µM with HepG2 [1], more than 100 µM in the test with L02 and more than 100 µM in test [2].
Consider `COc1ccc(-c2nnc(-c3nn(C)c4ccccc34)o2)cc1`, for which the results for the IC50 (with HepG2 [1]; in the test on L02; in test [2]) were 19.5 µM, more than 100 µM and more than 100 µM, respectively. Moreover, the figures for the inhibition entry with HepG2 [3] and in the test with HepG2 [4] were “Dose-dependent effect” and “Tde”, respectively. In addition, the Activity with HepG2 [5] came out at 10%; in the test on HepG2 [6], 45%; in the test with HepG2 [7] it was 41%; in the test on HepG2 [8], 55%; in the test with HepG2 [9] it was 10%; with HepG2 [10] it was 55%.
Turning to `Cn1nc(-c2nnc(-c3ccccc3Br)o2)c2ccccc21`, the IC50 was 22.3 µM in the test on HepG2 [1], 89 µM in the test on L02 and more than 100 µM in test [2].
`CC(=O)O[C@H]1C(=O)[C@@]2(C)[C@H]([C@H](OC(=O)c3ccccc3)[C@]3(O)C[C@H](OC(=O)[C@H](O)[C@@H](NC(=O)c4ccccc4)c4ccccc4)C(C)=C1C3(C)C)[C@]1(OC(C)=O)CO[C@@H]1C[C@@H]2O` [PACLITAXEL]: the IC50 in the test with HepG2 [1] came to 3.9 µM.
As to `Cn1nc(-c2nnc(-c3ccc(O)cc3)o2)c2ccccc21`, the IC50 is 86.4 µM in the test on HepG2 [1], more than 100 µM with L02 and more than 100 µM in test [2].
For the compound `Cn1nc(-c2nnc(-c3ccc(Cl)cc3)o2)c2ccccc21`, the IC50 in the test with HepG2 [1] was 42 µM; in the test with L02 it was more than 100 µM; in test [2], more than 100 µM.
As to `Cc1ccc(-c2nnc(-c3nn(C)c4ccccc34)o2)cc1`, the values for the IC50 (with HepG2 [1]; with L02; in test [2]) were 38.7 µM, more than 100 µM and more than 100 µM, respectively.
With `Cn1nc(-c2nnc(-c3ccc(Br)cc3)o2)c2ccccc21`, the figures for the IC50 (in the test with HepG2 [1]; with L02; in [2]) were 40 µM, more than 100 µM and more than 100 µM, respectively.
On to `Cc1ccc(C(=O)Nc2ccc(S(=O)(=O)O)c3cc(S(=O)(=O)O)cc(S(=O)(=O)O)c23)cc1NC(=O)c1cccc(NC(=O)Nc2cccc(C(=O)Nc3cc(C(=O)Nc4ccc(S(=O)(=O)O)c5cc(S(=O)(=O)O)cc(S(=O)(=O)O)c45)ccc3C)c2)c1` [SURAMIN], for which the IC50 in the test with HepG2 [1] was 67.4 µM.

The record behind these values is ChEMBL document CHEMBL4725269, “Exploring the newer oxadiazoles as real inhibitors of human SIRT2 in hepatocellular cancer cells” (Bioorg Med Chem Lett, 2020).
